Experimental data reported in patent US20260069581A1, “METHODS AND COMPOSITIONS FOR CANCER THERAPY” (OHIO STATE INNOVATION FOUNDATION, priority 2020, published 2026).

Columns and labels:
[1] = test system: DNA repair genes in patient LICs (CD34+ CD38−); experiment: LC-RNA-seq of primary patient LICs; format: cell-based, human
Description: FIG. 5A-5E show representative data that AR-42 and KPT-9274 synergistically alter DNA repair gene sets of LIC transcriptomes. […] Briefly, primary cells from 5 patients were treated with drug combination or vehicle for 12 hours before LICs (CD34^+ CD38^−) were sorted for LC-RNA-seq. […] Cutoff Log 2FC=1.5; p-value<10e^−2. […] The hierarchical clustering of genes and samples was performed using Euclidean distance matrix and Ward's clustering method.
Limiting cell-RNA-seq (LC-RNA-seq) for primary patient LICs. LC-RNA-seq was performed as previously described to determine transcriptome profiles and differentially expressed genes (DEGs) of patient LICs treated with various inhibitors (21). Briefly, patient cells were cultured in the presence of cytokines and treated with vehicle, single agents or drug combination. 300 viable LICs from treated patient samples were sorted directly into SMART-seq lysis buffer with FACSAria Fusion (BD) based on putative stem cell markers CD34^+ CD38^− (22). […] The Clontech SMARTer v4 kit (Takara Bio USA, Inc., Mountain View, CA) was used for preamplifying samples prior to library construction with the Nextera XT DNA Library Prep Kit (Illumina, Inc., San Diego, CA). Samples were sequenced to a depth of 15-20 million 2×150 bp clusters with the Illumina HiSeq 4000 platform. After quality control with CLEAR selection process and size-normalization, DEGs were called with DESeqs with (FDR) adjusted p-value <0.05. Principle component analysis (PCA) plots were created from count tables which were normalized by size and transformed. For pathway analysis, the list of DEGs, containing gene IDs and corresponding expression values, was uploaded into the IPA software (Qiagen) (Ingenuity Pathway Analysis, RRID:SCR_008653). […]
The synthetic lethality of AR-42 and KPT-9274 is conferred by simultaneous suppression of HR and NHEJ pathways in leukemia initiating cells (LICs). […] Treated LICs were analyzed for transcriptional differences and DNA repair mechanisms were highlighted.

leukemia stem cells = conditions: caspase-dependent apoptosis, Ref. 28; cited from earlier work
[2] = in vivo; cited from earlier work
[3] = Phase I trial; cited from earlier work
Kasumi-1 cells = experiment: MTS cell viability of shRNA-stable Kasumi-1 cells treated with KPT-9274; format: cell-based; conditions: Kasumi-1 scrambled control, 24 hour KPT-9274 treatment
Source text: FIGS. 2A-2M show show representative data for genetic depletion of HDAC8 or SIRT6 increases vulnerability of AML cell lines to KPT-9274 treatment. FIGS. 2A-2D show data for knockout efficiency of CDS- and 3′UTR-targeting shRNAs in MOLM13 and Kasumi-1 cells as assessed with Western blotting (FIGS. 2A, 2D) with GAPDH as a loading control. Densitometric quantification of protein band intensity is shown (n=2) in FIGS. 2B, 2E. FIGS. 2E-2H show representative data for depletion of HDAC8 or SIRT6 (as indicated in graphs) and sensitization of AML cell lines to KPT-9274 treatment. Dose-response curves of shRNA-stable MOLM13 and Kasumi-1 cells for 24-hour and 48-hour treatments are plotted. Cell viability was measured with MTS. […] Scrambled or gene-targeting shRNA-stable MOLM13 or Kasumi-1 cells were treated with IC20 dose of KPT-9274 for 48 hour and stained with Annexin/PI for flow cytometry analysis. Data are shown as mean±SEM of % population from duplicates. […] Quantification of the number of colonies formed by shRNA-stable Kasumi-1 and MOLM13 cells in the presence or absence of KPT-9274 in CFU assays. Indicated number of cells were seeded into Methocult and colonies were counted and replated by a double-blind approach after 7 days. […]
MTS assay. […] Plates were read by using a BioTek synergy H4 hybrid multimode microplate reader (Thermo Fisher Scientific) at 490 nM. […]

Row | SMILES | mRNA levels of HR genes (NBN, RBBP8, RAD51, BRCA1), D-NHEJ genes (XRCC4, XRCC5) and ATM pathway genes (CHEK1, CHEK2) ([1]; AR-42 alone or in combination with KPT-9274, 12 hours) | death of leukemia stem cells (leukemia stem cells) | tolerability of dose [2] | BRCA1 and XRCC4 expression ([1]; KPT-9274 alone, in some patients) | yields of D-NHEJ transcripts (XRCC6, PRKDC) and B-NHEJ gene PARP1 ([1]; in all patients) | drug-related adverse events [3] | tolerability vs 1st generation NAMPTi [3] | IC50 (Kasumi-1 cells)
1 | CC(C)[C@H](C(=O)Nc1ccc(C(=O)NO)cc1)c1ccccc1 [AR-42, (S)—N-Hydroxy-4-(3-methyl-2-phenylbutanamido)benzamide] | downregulated | induce death of leukemia stem cells | tolerated |  |  |  |  | 
2 | Nc1ccc(/C=C/C(=O)NCc2cc3cc(-c4ccc(C(=O)N5CCC(F)(F)CC5)cc4)cc(-c4ccc(F)cc4)c3o2)cn1 [KPT-9274, (E)-3-(6-aminopyridin-3-yl)-N-[[5-[4-(4,4-difluoropiperidine-1-carbonyl)phenyl]-7-(4-fluorophenyl)-1-benzofuran-2-yl]methyl]prop-2-enamide] |  |  |  | upregulated | decreased | anemia and fatigue | better tolerated | did not achieve IC50
